Legend:
[1] = test system: ABUTH; assay: Post-emergence action against ABUTH, 1.28 kg/ha; type: in vivo, Abutilon theophrasti; conditions: dosage 1280 g/ha, visual rating about 3 weeks after treatment vs untreated controls (100% = plants died)
How it was run: (§1)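 Herbicidal action is estimated by eye after about three weeks under optimum greenhouse conditions, on a 0–100% scale against untreated plants. Compounds are applied post-emergence to one-leaf-stage weeds as aqueous WP or EC preparations containing 0.5% additive, sprayed at 600 L/ha.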

[2] = test system: ABUTH; assay: Pre-emergence action at 320 g/ha against ABUTH; type: in vivo, Abutilon theophrasti; conditions: greenhouse, scored visually after about 3 weeks vs untreated controls, 100% = plants have died, 0% = like control plants
From the text: b) Seeds of monocotyledonous and dicotyledonous weed plants and crop plants are placed in plastic or organic planting pots and covered with soil. The compounds of the invention, formulated in the form of wettable powders (WP) or as emulsion concentrates (EC), are then applied onto the surface of the covering soil as aqueous suspension or emulsion with addition of 0.5% additive at a water application rate of 600 l/ha (converted). After the treatment, the pots are placed in a greenhouse and kept under good growth conditions for the trial plants. After about 3 weeks, the effect of the preparations is scored visually in comparison with untreated controls as percentages. For example, 100% activity=the plants have died, 0% activity=like control plants. Tables 13 to 26 below show the effects of selected compounds of the general formula (I) on various harmful plants and at an application rate corresponding to 320 g/ha, which were obtained by the experimental procedure mentioned above.

[3] = test system: MATIN; assay: Pre-emergence action against MATIN, 1280 g/ha; type: in vivo, Tripleurospermum inodorum (Matricaria inodora); conditions: scored visually after about 3 weeks vs untreated controls (100% = plants have died)
How it was run: (§2)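 Percent herbicidal effect, judged by eye relative to untreated pots around 3 weeks after soil-surface treatment. Application: formulated compound in water, 600 L/ha, 0.5% additive, on soil over sown seeds; greenhouse.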

[4] = test system: POAAN; assay: Pre-emergence action against POAAN, 1280 g/ha; type: in vivo, Poa annua; conditions: visual scoring after about 3 weeks vs untreated controls, 100% = plants have died, 0% = like control plants
How it was run: as §2

[5] = test system: POLCO; assay: Pre-emergence action at 320 g/ha against POLCO; type: in vivo, Fallopia convolvulus (Polygonum convolvulus); conditions: visual scoring after about 3 weeks vs untreated controls
How it was run: (§3)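 Greenhouse pot trial in which formulated compound (wettable powder or emulsion concentrate) goes onto the soil surface right after sowing, at a spray volume of 600 l/ha including 0.5% additive. Effects are judged visually after about 3 weeks (0% = like control, 100% = dead).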

[6] = test system: SETVI; assay: Pre-emergence action at 320 g/ha against SETVI; type: in vivo, Setaria viridis; conditions: visual scoring after about 3 weeks vs untreated controls
How it was run: as §3

[7] = test system: VERPE; assay: Post-emergence action against VERPE, 1.28 kg/ha; type: in vivo, Veronica persica; conditions: dosage 1280 g/ha, visual rating about 3 weeks after treatment vs untreated controls (100% = plants died)
How it was run: as §1

[8] = test system: ECHCG; assay: Post-emergence action against ECHCG, 1.28 kg/ha; type: in vivo, Echinochloa crus-galli; conditions: dosage 1280 g/ha, visual rating about 3 weeks after treatment vs untreated controls
How it was run: as §1

[9] = test system: LOLRI; assay: Pre-emergence action against LOLRI, 1280 g/ha; type: in vivo, Lolium rigidum; conditions: visual scoring after about 3 weeks vs untreated controls, 100% = plants have died, 0% = like control plants
How it was run: as §2

[10] = test system: VIOTR; assay: Pre-emergence action at 320 g/ha against VIOTR; type: in vivo, Viola tricolor; conditions: dosage 320 g/ha
How it was run: as §3

[11] = test system: STEME; assay: Pre-emergence action against STEME, 1280 g/ha; type: in vivo, Stellaria media; conditions: scored visually after about 3 weeks vs untreated controls (100% = plants have died)
How it was run: as §2

[12] = test system: AMARE; assay: Pre-emergence action at 320 g/ha against AMARE; type: in vivo, Amaranthus retroflexus; conditions: visual scoring after about 3 weeks vs untreated controls
How it was run: as §3

[13] = test system: LOLRI; assay: Pre-emergence action at 320 g/ha against LOLRI; type: in vivo, Lolium rigidum; conditions: visual scoring after about 3 weeks vs untreated controls
How it was run: as §3

[14] = test system: ALOMY; assay: Pre-emergence action at 320 g/ha against ALOMY; type: in vivo, Alopecurus myosuroides; conditions: scored visually after about 3 weeks vs untreated controls (100% = plants have died)
How it was run: as §3

[15] = test system: POAAN; assay: Post-emergence action against POAAN, 1.28 kg/ha; type: in vivo, Poa annua; conditions: dosage 1280 g/ha, visual rating about 3 weeks after treatment vs untreated controls
How it was run: as §1

[16] = test system: DIGSA; assay: Pre-emergence action against DIGSA, 1280 g/ha; type: in vivo, Digitaria sanguinalis; conditions: visual scoring after about 3 weeks vs untreated controls, 100% = plants have died, 0% = like control plants
How it was run: as §2

[17] = test system: ECHGC; assay: Pre-emergence action at 320 g/ha against ECHGC; type: in vivo, Echinochloa crus-galli; conditions: visual scoring after about 3 weeks vs untreated controls
How it was run: as §3

[18] = test system: ALOMY; assay: Pre-emergence action against ALOMY, 1280 g/ha; type: in vivo, Alopecurus myosuroides; conditions: visual scoring after about 3 weeks vs untreated controls, 100% = plants have died, 0% = like control plants
How it was run: as §2

[19] = test system: ECHCG; assay: Pre-emergence action against ECHCG, 1280 g/ha; type: in vivo, Echinochloa crus-galli; conditions: visual scoring after about 3 weeks vs untreated controls, 100% = plants have died, 0% = like control plants
How it was run: as §2

[20] = test system: DIGSA; assay: Post-emergence action against DIGSA, 1.28 kg/ha; type: in vivo, Digitaria sanguinalis; conditions: dosage 1280 g/ha, visual rating about 3 weeks after treatment vs untreated controls
How it was run: as §1

[21] = test system: AMARE; assay: Post-emergence action against AMARE, 1.28 kg/ha; type: in vivo, Amaranthus retroflexus; conditions: dosage 1280 g/ha, visual rating about 3 weeks after treatment vs untreated controls (100% = plants died)
How it was run: as §1

[22] = test system: LOLRI; assay: Post-emergence action against LOLRI, 1.28 kg/ha; type: in vivo, Lolium rigidum; conditions: dosage 1280 g/ha, visual rating about 3 weeks after treatment vs untreated controls
How it was run: as §1

[23] = test system: AVEFA; assay: Pre-emergence action at 320 g/ha against AVEFA; type: in vivo; conditions: visual scoring after about 3 weeks vs untreated controls
How it was run: as §3

[24] = test system: DIGSA; assay: Pre-emergence action at 320 g/ha against DIGSA; type: in vivo, Digitaria sanguinalis; conditions: visual scoring after about 3 weeks vs untreated controls
How it was run: as §3

[25] = test system: ALOMY; assay: Post-emergence action against ALOMY, 1.28 kg/ha; type: in vivo, Alopecurus myosuroides; conditions: dosage 1280 g/ha, visual rating about 3 weeks after treatment vs untreated controls
How it was run: as §1

[26] = test system: SETVI; assay: Pre-emergence action against SETVI, 1280 g/ha; type: in vivo, Setaria viridis; conditions: visual scoring after about 3 weeks vs untreated controls, 100% = plants have died, 0% = like control plants
How it was run: as §2

[27] = test system: VERPE; assay: Pre-emergence action at 320 g/ha against VERPE; type: in vivo, Veronica persica; conditions: visual scoring after about 3 weeks vs untreated controls
How it was run: as §3

[28] = test system: AMARE; assay: Pre-emergence action against AMARE, 1280 g/ha; type: in vivo, Amaranthus retroflexus; conditions: scored visually after about 3 weeks vs untreated controls (100% = plants have died)
How it was run: as §2

[29] = test system: VERPE; assay: Pre-emergence action against VERPE, 1280 g/ha; type: in vivo, Veronica persica; conditions: scored visually after about 3 weeks vs untreated controls (100% = plants have died)
How it was run: as §2

[30] = test system: MATIN; assay: Pre-emergence action at 320 g/ha against MATIN; type: in vivo, Tripleurospermum inodorum (Matricaria inodora); conditions: visual scoring after about 3 weeks vs untreated controls
How it was run: as §3

[31] = test system: PHBPU; assay: Pre-emergence action at 320 g/ha against PHBPU; type: in vivo; conditions: visual scoring after about 3 weeks vs untreated controls
How it was run: as §3

SMILES | Pre-emergence action at 320 g/ha against ABUTH in % [2] [%] | Pre-emergence action against POLCO in % [5] [%] | Pre-emergence action against SETVI in % [6] [%] | Pre-emergence action against VIOTR in % [10] [%] | Pre-emergence action against AMARE in % [12] [%] | Pre-emergence action against LOLRI in % [13] [%] | Pre-emergence action at 320 g/ha against ALOMY in % [14] [%] | Pre-emergence action against ECHGC in % [17] [%] | Pre-emergence action against AVEFA in % [23] [%] | Pre-emergence action against DIGSA in % [24] [%] | Pre-emergence action against VERPE in % [27] [%] | Pre-emergence action against MATIN in % [30] [%] | Pre-emergence action against PHBPU in % [31] [%] | further results
CON(C)C(=O)COc1nn(-c2ccccc2F)c(-c2ccc(F)nc2)c1Br [Example X-019] | 80 | 90 | 100 | 100 | 100 | 100 | 100 | 100 | 80 | 100 | 100 | 100 |  | Post-emergence action against ABUTH [1]: 90%; Pre-emergence action against MATIN [3]: 100%; Pre-emergence action against POAAN [4]: 100%; Post-emergence action against VERPE [7]: 90%; Post-emergence action against ECHCG [8]: 100%; Pre-emergence action against LOLRI [9]: 100%; Pre-emergence action against STEME [11]: 90%; Post-emergence action against POAAN [15]: 100%; Pre-emergence action against DIGSA [16]: 100%; Pre-emergence action against ALOMY [18]: 100%; Pre-emergence action against ECHCG [19]: 100%; Post-emergence action against DIGSA [20]: 90%; Post-emergence action against AMARE [21]: 90%; Post-emergence action against LOLRI [22]: 90%; Post-emergence action against ALOMY [25]: 100%; Pre-emergence action against SETVI [26]: 100%; Pre-emergence action against AMARE [28]: 100%; Pre-emergence action against VERPE [29]: 90%
CCOC(=O)CN(C)S(=O)(=O)NC(=O)COc1nn(-c2ccccc2F)c(-c2ccc(F)nc2)c1Br [Example X-031] | 80 | 80 | 100 | 90 | 90 | 80 | 90 | 80 | 80 | 100 | 90 | 80 | 90 | 
COC(=O)[C@@H](C)Oc1nn(-c2cc(F)ccc2F)c(-c2cncc(F)c2)c1I [VII-135] | 80 | 100 | 100 | 100 | 100 | 100 | 100 | 90 | 90 |  | 100 | 90 | 90 | 
CCOC(=O)[C@@H](C)Oc1nn(-c2cc(F)ccc2F)c(-c2cncc(F)c2)c1Br [VII-136] | 80 | 100 | 100 | 100 | 100 | 90 | 100 | 90 | 90 |  | 100 | 90 | 90 | 
